Measured values: PMC4646422 (ACS chemical biology, 2015)
Several values for one entry are separate records, joined by “and”; a condition that tells them apart may be missing. Equal entries are not always repeated. Where two headings read alike, the source gives them in different places. Values belong to the molecule of their own block, whether it stands above or below them.

What was measured:
[1] = molecular target: malate dehydrogenase (MDH); test: Malate dehydrogenase; type: biochemical; conditions: for inhibition of MDH (in words): counter-screening enzyme
[2] = type: physicochemical; conditions: for radius: DLS, 25 °C, at twice the compound's CAC; for radius / CAC (critical aggregation concentration): ND = not detected to precipitation limit; for CAC (critical aggregation concentration): dynamic light scattering, 50 mM KPi pH 7.0, 1% DMSO; for particle formation observed by DLS: up to solubility limits; for concentration at which the molecule may aggregate: authors' summary in the discussion
CYP3A4 = conditions: read-out: EC50, CYP3A4; representative literature value; cited from earlier work
P-glycoprotein = conditions: read-out: EC50, P-glycoprotein; representative literature value; cited from earlier work
CDK2 = conditions: read-out: EC50, CDK2; representative literature value; cited from earlier work
AmpC β-lactamase = AmpC β-lactamase (Escherichia coli, UniProt P00811); test: biochemical; type: biochemical; conditions: for inhibition of AmpC β-lactamase (in words): counter-screening enzyme; for IC50: IC50 vs AmpC β-lactamase
HIV-2 protease [3] = molecular target: T1, HIV-2 protease (Human immunodeficiency virus type 2 subtype A, UniProt P04584); conditions: read-out: EC50, HIV-2 protease; representative literature value; cited from earlier work
HIV-2 protease [4] = molecular target: T1, HIV-2 protease; test: HIV-2 protease inhibition assay; conditions: IC50 vs HIV-2 protease, 50 mM sodium acetate, pH 5.5, 200 mM sodium chloride
HIV-1 protease = conditions: read-out: EC50, HIV-1 protease; representative literature value; cited from earlier work
Ca^2+-ATPase = conditions: read-out: EC50, Ca^2+-ATPase; representative literature value; cited from earlier work
GL01 = conditions: read-out: EC50, GL01; representative literature value; cited from earlier work
[5] = molecular target: Trypsin from porcine pancreas (Sus scrofa, UniProt P00761); test: Trypsin inhibition assay; type: biochemical; conditions: IC50 vs trypsin, 50 mM potassium phosphate
AMPK = conditions: read-out: EC50, AMPK; representative literature value; cited from earlier work
MMP = conditions: read-out: EC50, MMP; representative literature value; cited from earlier work
trypsin = conditions: read-out: EC50, trypsin; representative literature value; cited from earlier work
11 β HSD1 = conditions: read-out: EC50, 11 β HSD1; representative literature value; cited from earlier work
DYRK1A and CLK1 = conditions: read-out: EC50, DYRK1A and CLK1; representative literature value; cited from earlier work
ERR = conditions: read-out: EC50, ERR; representative literature value; cited from earlier work
CDK = conditions: read-out: EC50, CDK; representative literature value; cited from earlier work
OCT2 = conditions: read-out: EC50, OCT2; representative literature value; cited from earlier work
MATE1 = conditions: read-out: EC50, MATE1; representative literature value; cited from earlier work
hCNT = conditions: read-out: EC50, hCNT; representative literature value; cited from earlier work
PTP1B = conditions: read-out: EC50, PTP1B; representative literature value; cited from earlier work
ASICs = conditions: read-out: EC50, ASICs; representative literature value; cited from earlier work
GLUT4 = conditions: read-out: EC50, GLUT4; representative literature value; cited from earlier work
Hsp90 = conditions: read-out: EC50, Hsp90; representative literature value; cited from earlier work
[6] = read-out: IC50 vs MDH, no detergent, 50 mM potassium phosphate, pH 7.0, ND = not detected to precipitation limit
[7] = read-out: IC50 vs MDH, with detergent, 50 mM potassium phosphate, pH 7.0 + 0.01% (v/v) Triton X-100, ND = not detected to precipitation limit
[8] = read-out: IC50 vs MDH, with DTT, with 1 mM DTT
[9] = with detergent, pH 7.0 + 0.01% (v/v) Triton X-100

Trypsin from porcine pancreas, sequence (P00761 9-231): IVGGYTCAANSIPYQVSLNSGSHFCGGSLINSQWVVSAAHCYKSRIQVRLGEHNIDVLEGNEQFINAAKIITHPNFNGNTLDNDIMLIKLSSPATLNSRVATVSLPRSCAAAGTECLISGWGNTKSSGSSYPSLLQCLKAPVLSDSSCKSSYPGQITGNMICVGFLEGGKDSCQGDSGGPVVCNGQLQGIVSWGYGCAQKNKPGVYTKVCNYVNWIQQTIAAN
T1 sequence (P04584 514-612 limits assumed): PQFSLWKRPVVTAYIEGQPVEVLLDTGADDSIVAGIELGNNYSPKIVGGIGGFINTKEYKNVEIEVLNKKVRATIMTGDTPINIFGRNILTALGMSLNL
AmpC β-lactamase, sequence (P00811 20-377): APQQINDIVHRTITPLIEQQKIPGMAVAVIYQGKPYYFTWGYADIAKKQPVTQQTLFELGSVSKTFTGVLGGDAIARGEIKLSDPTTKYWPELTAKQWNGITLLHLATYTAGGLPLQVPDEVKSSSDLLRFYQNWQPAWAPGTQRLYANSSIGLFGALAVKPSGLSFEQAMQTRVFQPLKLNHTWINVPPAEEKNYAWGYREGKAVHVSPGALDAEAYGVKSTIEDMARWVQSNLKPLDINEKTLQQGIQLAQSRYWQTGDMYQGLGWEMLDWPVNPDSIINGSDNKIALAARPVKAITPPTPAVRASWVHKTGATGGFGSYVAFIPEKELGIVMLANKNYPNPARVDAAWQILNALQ

- IC50 [1, 6]: 1.6 µM
- IC50 [1, 7]: 84 µM
- radius [2]: 52 ± 10 nm
- CAC (critical aggregation concentration) [2]: 57 ± 7 µM
Structure (SMILES): Oc1ccc2c(c1)OC[C@]1(O)Cc3cc(O)c(O)cc3[C@H]21 [brazilin]

Structure (SMILES): C[C@]12CC[C@H](O)C[C@H]1CC[C@@H]1[C@@H]2CC[C@]2(C)[C@@H](c3ccc(=O)oc3)CC[C@]12O [bufalin]
- IC50 [1, 6]: 101 µM
- IC50 [1, 7]: > 200 µM
- radius [2]: 1317 ± 394 nm
- CAC (critical aggregation concentration) [2]: 51 ± 3 µM
- EC50 (CYP3A4): 14.5 µM
- EC50 (P-glycoprotein): 100 µM

Structure (SMILES): COc1ccc2c(c1OC)CN1CCc3cc4c(cc3[C@@H]1C2)OCO4 [canadine]
- EC50 (CDK2): > 50 µM
- inhibition of AmpC β-lactamase (in words) (AmpC β-lactamase): did not inhibit
- inhibition of MDH (in words) [1]: did not inhibit
- radius [2]: 52 ± 14 nm
- CAC (critical aggregation concentration) [2]: 95 ± 11 µM
- particle formation observed by DLS [2]: formed particles

Structure (SMILES): COc1cc(/C=C/C(=O)CC(=O)/C=C/c2ccc(O)c(OC)c2)ccc1O [curcumin]
- EC50 (HIV-2 protease [3]): 250 µM
- IC50 (HIV-2 protease [4]; no detergent, 1 mM EDTA and 0.5 mM TCEP): 19 µM
- IC50 (HIV-2 protease [4]; with detergent, 1 mM EDTA and 0.5 mM TCEP + 0.01% (v/v) Triton X-100): > 100 µM
- IC50 ([1]; read-out: IC50 vs MDH, no DTT): 9 µM
- IC50 [1, 6]: 9 µM
- IC50 [1, 8]: 10 µM
- IC50 [1, 7]: > 30 µM
- radius [2]: 465 ± 30 nm
- CAC (critical aggregation concentration) [2]: 17 µM and 17 ± 0.44 µM
- EC50 (HIV-1 protease): 100 µM
- EC50 (Ca^2+-ATPase): ~3 µM

Structure (SMILES): Oc1cc(O)c2cc(O)c(-c3cc(O)c(O)c(O)c3)[o+]c2c1 [delphinidin]
- EC50 (GL01): 1.9 µM
- IC50 [1, 6]: 27 µM
- IC50 [1, 7]: > 100 µM
- particle formation observed by DLS [2]: no particles were observed

- IC50 [1, 6]: 49 µM
- IC50 [1, 7]: > 200 µM
- radius [2]: 269 ± 49 nm
- CAC (critical aggregation concentration) [2]: 40 ± 4.0 µM
Structure (SMILES): COc1cc2c(O)c3c(c(-c4ccc5c(c4)OCO5)c2cc1OC)C(=O)OC3 [diphyllin]

Structure (SMILES): Cc1cc(O)c2c(c1)C(=O)c1cc(O)cc(O)c1C2=O [emodin]
- IC50 ([5]; no detergent, pH 7.0): 49 µM
- IC50 [5, 9]: > 500 µM
- IC50 (AmpC β-lactamase; no DTT): 27 µM
- IC50 (AmpC β-lactamase; with DTT, with 1 mM DTT): 17 µM
- EC50 (AMPK): 0.5 µM
- EC50 (MMP): 12.8 to 20.1 µM
- EC50 (trypsin): 50 µM
- IC50 ([1]; read-out: IC50 vs MDH, no DTT): 28 µM
- IC50 [1, 6]: 28 µM
- IC50 [1, 8]: 18 µM
- IC50 [1, 7]: > 100 µM
- radius [2]: 231 ± 61 nm
- CAC (critical aggregation concentration) [2]: 28 ± 2 µM
- EC50 (11 β HSD1): 4.2 to 7.2 µM
- EC50 (DYRK1A and CLK1): 4.2 to 6.1 µM

- concentration at which the molecule may aggregate [2]: ≥ 100 µM
- particle formation observed by DLS [2]: no particles were observed
Structure (SMILES): Oc1ccc([C@H]2COc3cc(O)ccc3C2)cc1 [equol]
- EC50 (ERR): 5.8 µM

- IC50 ([5]; no detergent, pH 7.0): 110 µM
- IC50 [5, 9]: > 250 µM
- IC50 [1, 6]: 61 µM
- IC50 [1, 7]: > 100 µM
- radius [2]: 61 ± 20 nm
- CAC (critical aggregation concentration) [2]: 81 ± 26 µM
Structure (SMILES): O=c1c(O)c(-c2ccc(O)cc2)oc2cc(O)cc(O)c12 [kaempferol]
- EC50 (CDK): 2.5 to 51 µM

Structure (SMILES): COc1ccc2c(c1OC)C(=O)O[C@@H]2[C@H]1c2c(cc3c(c2OC)OCO3)CCN1C [noscapine]
- EC50 (OCT2): 2.6 µM
- inhibition of AmpC β-lactamase (in words) (AmpC β-lactamase): no inhibition
- EC50 (MATE1): 34.5 µM
- inhibition of MDH (in words) [1]: no inhibition
- particle formation observed by DLS [2]: no particles were observed

Structure (SMILES): O=C(CCc1ccc(O)cc1)c1c(O)cc(O)cc1O[C@@H]1O[C@H](CO)[C@@H](O)[C@H](O)[C@H]1O [phlorizin]
- inhibition of AmpC β-lactamase (in words) (AmpC β-lactamase): no inhibition
- inhibition of MDH (in words) [1]: no inhibition
- particle formation observed by DLS [2]: no particles were observed
- EC50 (hCNT): 100 to 200 µM

Structure (SMILES): COc1cc(O)c2c(c1)C(=O)c1cc(C)cc(O)c1C2=O [physcion]
- IC50 (AmpC β-lactamase; no DTT): 7 µM
- IC50 (AmpC β-lactamase; with DTT, with 1 mM DTT): 11 µM
- EC50 (PTP1B): 20 µM
- EC50 (MMP): 26.8 to 45.3 µM
- IC50 ([1]; read-out: IC50 vs MDH, no DTT): 11 µM
- IC50 [1, 6]: 11 µM
- IC50 [1, 8]: 8 µM
- IC50 [1, 7]: > 20 µM
- radius [2]: 320 ± 83 nm
- CAC (critical aggregation concentration) [2]: 0.32 ± 0.025 µM

- IC50 [1, 6]: 135 µM
- IC50 [1, 7]: 156 µM
- radius [2]: 78 ± 25 nm
- concentration at which the molecule may aggregate [2]: ≥ 100 µM
- CAC (critical aggregation concentration) [2]: 135 µM and 135 ± 40 µM
Structure (SMILES): O=c1c(-c2ccc(O)cc2)coc2c([C@@H]3O[C@H](CO)[C@@H](O)[C@H](O)[C@H]3O)c(O)ccc12 [puerarin]
- EC50 (ASICs): 38.4 µM

- IC50 [1, 6]: 12 µM
- IC50 [1, 7]: > 100 µM
- radius [2]: 53 ± 16 nm
- CAC (critical aggregation concentration) [2]: 0.47 ± 0.15 µM
Structure (SMILES): COc1cc(C2Oc3cc([C@H]4Oc5cc(O)cc(O)c5C(=O)[C@@H]4O)ccc3OC2CO)ccc1O (stereo partly shown) [silibinin]
- EC50 (GLUT4): 60 µM
- EC50 (Hsp90): 250 µM
